Test results reported in patent US9695155B2, “Herbicidal substituted pyrimidinyloxy benzene compounds” (E. I. DU PONT DE NEMOURS AND COMPANY, priority 2013, dated 2017).

How the values were obtained:
oilseed rape = experiment: Test C postemergence; type: in vivo, Brassica napus; conditions: for Plant response rating (0 to 100), Oilseed Rape: 16 g ai/ha, 0 is no effect, 100 is complete control; for Oilseed Rape plant response rating: 31 g ai/ha, 13 to 15 days; for Oilseed Rape plant response rating / Plant response rating, Oilseed Rape: scale 0 to 100 (0 no effect, 100 complete control)
Summary of the method: (§1)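 Injury was assessed visually against controls 13 to 15 days after application, with 0 meaning no effect and 100 full control; missing entries are shown as a dash. Preemergence sprays hit seeded loam–sand soil, postemergence sprays hit 1- to 4-leaf plants.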

kochia = experiment: Test C postemergence; type: in vivo, Kochia scoparia; conditions: for Plant response rating (0 to 100), Kochia: 16 g ai/ha, 0 is no effect, 100 is complete control; for Kochia plant response rating: 31 g ai/ha, 13 to 15 days; for Kochia plant response rating / Plant response rating, Kochia: scale 0 to 100 (0 no effect, 100 complete control)
Summary of the method: as §1

large (Lg) crabgrass = experiment: Test C postemergence; type: in vivo, Digitaria sanguinalis; conditions: for Plant response rating (0 to 100), Crabgrass, Large: 16 g ai/ha, 0 is no effect, 100 is complete control; for Crabgrass, Large plant response rating: 31 g ai/ha, 13 to 15 days; for Crabgrass, Large plant response rating / Plant response rating, Crabgrass, Large: scale 0 to 100 (0 no effect, 100 complete control)
Summary of the method: as §1

yellow nutsedge = experiment: Test C postemergence; type: in vivo, Cyperus esculentus; conditions: for Plant response rating (0 to 100), Nutsedge, Yellow: 16 g ai/ha, 0 is no effect, 100 is complete control; for Nutsedge, Yellow plant response rating: 31 g ai/ha, 13 to 15 days; for Nutsedge, Yellow plant response rating / Plant response rating, Nutsedge, Yellow: scale 0 to 100 (0 no effect, 100 complete control)
Summary of the method: as §1

morningglory [1] = experiment: Test C postemergence; type: in vivo, Ipomoea coccinea; conditions: for Plant response rating (0 to 100), Morningglory: 16 g ai/ha, 0 is no effect, 100 is complete control; for Morningglory plant response rating: 31 g ai/ha, 13 to 15 days; for Morningglory plant response rating / Plant response rating, Morningglory: scale 0 to 100 (0 no effect, 100 complete control)
Summary of the method: as §1

morningglory [2] = experiment: Test A preemergence; type: in vivo, Ipomoea spp.; conditions: for Morningglory plant response rating (0 to 100 scale): 125 g ai/ha; for Morningglory plant response rating: 500 g ai/ha, 0 to 100 scale where 0 is no effect and 100 is complete control
Summary of the method: (§2)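 Scoring: eye-based comparison with untreated controls, 0 for no effect through 100 for complete control, at about day 10. Treatments: directed soil spray preemergence; foliar spray postemergence on 2–10 cm plants at the one- to two-leaf stage. Medium: loam soil with sand.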

wheat [3] = experiment: Test A preemergence; type: in vivo, Triticum aestivum; conditions: for Wheat plant response rating (0 to 100 scale): 125 g ai/ha; for Wheat plant response rating: 500 g ai/ha, 0 to 100 scale where 0 is no effect and 100 is complete control
Summary of the method: as §2

corn = experiment: Test A preemergence; type: in vivo, Zea mays; conditions: for Corn plant response rating (0 to 100 scale): 125 g ai/ha; for Corn plant response rating: 500 g ai/ha, 0 to 100 scale where 0 is no effect and 100 is complete control
Summary of the method: as §2

johnsongrass = experiment: Test C postemergence; type: in vivo, Sorghum halepense; conditions: for Plant response rating (0 to 100), Johnsongrass: 16 g ai/ha, 0 is no effect, 100 is complete control; for Johnsongrass plant response rating: 31 g ai/ha, 13 to 15 days; for Johnsongrass plant response rating / Plant response rating, Johnsongrass: scale 0 to 100 (0 no effect, 100 complete control)
Summary of the method: as §1

sedge, umbrella = experiment: Test B flooded paddy test; type: in vivo, Cyperus difformis; conditions: Flood, 250 g ai/ha; 0 to 100 scale where 0 is no effect and 100 is complete control
Summary of the method: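 Scores from 0 (no effect) to 100 (complete control) are visual comparisons with controls, taken 13 to 15 days after compound was applied into floodwater 3 cm deep around 2-leaf plants.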

morningglory [4] = experiment: Test A postemergence; type: in vivo, Ipomoea spp.; conditions: 0 to 100 scale where 0 is no effect and 100 is complete control; for Morningglory plant response rating: 125 g ai/ha; for Plant response rating, Morningglory: 500 g ai/ha
Summary of the method: as §2

barnyardgrass [5] = experiment: Test C postemergence; type: in vivo, Echinochloa crus-galli; conditions: for Barnyardgrass plant response rating: 31 g ai/ha, 13 to 15 days; for Barnyardgrass plant response rating / Plant response rating, Barnyardgrass: scale 0 to 100 (0 no effect, 100 complete control)
Summary of the method: as §1

barnyardgrass [6] = experiment: Test A preemergence; type: in vivo, Echinochloa crus-galli; conditions: for Barnyardgrass plant response rating (0 to 100 scale, 0 is no effect, 100 is complete control): 125 g ai/ha; for Barnyardgrass plant response rating: 500 g ai/ha, 0 to 100 scale where 0 is no effect and 100 is complete control
Summary of the method: as §2

wheat [7] = experiment: Test A postemergence; type: in vivo, Triticum aestivum; conditions: 0 to 100 scale where 0 is no effect and 100 is complete control; for Wheat plant response rating: 125 g ai/ha; for Plant response rating, Wheat: 500 g ai/ha
Summary of the method: as §2

blackgrass = experiment: Test C postemergence; type: in vivo, Alopecurus myosuroides; conditions: for Plant response rating (0 to 100), Blackgrass: 16 g ai/ha, 0 is no effect, 100 is complete control; for Blackgrass plant response rating: 31 g ai/ha, 13 to 15 days; for Blackgrass plant response rating / Plant response rating, Blackgrass: scale 0 to 100 (0 no effect, 100 complete control)
Summary of the method: as §1

[8] = 125 g ai/ha, postemergence, visual rating

## Cc1cnc(Oc2cccc(C#N)c2-n2cc(C(F)(F)F)cn2)nc1 [Compound 180]
Oilseed rape; postemergence
  Plant response rating (0 to 100), Oilseed Rape: 15
Oilseed rape; postemergence, visual rating
  Oilseed Rape plant response rating: 25
Oilseed rape; [8]
  Plant response rating, Oilseed Rape: 55
Oilseed rape; Postemergence, 62 g ai/ha
  Plant response rating, Oilseed Rape: 40
kochia; postemergence
  Plant response rating (0 to 100), Kochia: 40
kochia; postemergence, visual rating
  Kochia plant response rating: 50
kochia; [8]
  Plant response rating, Kochia: 60
kochia; Postemergence, 62 g ai/ha
  Plant response rating, Kochia: 50
Large (Lg) crabgrass; postemergence
  Plant response rating (0 to 100), Crabgrass, Large: 5
Large (Lg) crabgrass; postemergence, visual rating
  Crabgrass, Large plant response rating: 5
Large (Lg) crabgrass; [8]
  Plant response rating, Crabgrass, Large: 35
Large (Lg) crabgrass; Postemergence, 62 g ai/ha
  Plant response rating, Crabgrass, Large: 5
Yellow nutsedge; postemergence
  Plant response rating (0 to 100), Nutsedge, Yellow: 0
Yellow nutsedge; postemergence, visual rating
  Nutsedge, Yellow plant response rating: 0
Yellow nutsedge; [8]
  Plant response rating, Nutsedge, Yellow: 10
Yellow nutsedge; Postemergence, 62 g ai/ha
  Plant response rating, Nutsedge, Yellow: 10
Morningglory [1]; postemergence
  Plant response rating (0 to 100), Morningglory: 45
Morningglory [1]; postemergence, visual rating
  Morningglory plant response rating: 65
Morningglory [1]; [8]
  Plant response rating, Morningglory: 90
Morningglory [1]; Postemergence, 62 g ai/ha
  Plant response rating, Morningglory: 75
Morningglory [2]
  Morningglory plant response rating (0 to 100 scale): 90
  Morningglory plant response rating: 100
Wheat [3]
  Wheat plant response rating (0 to 100 scale): 20
  Wheat plant response rating: 80
corn
  Corn plant response rating (0 to 100 scale): 60
  Corn plant response rating: 90
johnsongrass; postemergence
  Plant response rating (0 to 100), Johnsongrass: 0
johnsongrass; postemergence, visual rating
  Johnsongrass plant response rating: 0
johnsongrass; [8]
  Plant response rating, Johnsongrass: 5
johnsongrass; Postemergence, 62 g ai/ha
  Plant response rating, Johnsongrass: 0
sedge, umbrella
  Plant response rating, Sedge, Umbrella: 80
Morningglory [4]
  Morningglory plant response rating: 100
  Plant response rating, Morningglory: 100
Barnyardgrass [5]; postemergence, visual rating
  Barnyardgrass plant response rating: 5
Barnyardgrass [5]; [8]
  Plant response rating, Barnyardgrass: 20
Barnyardgrass [5]; Postemergence, 62 g ai/ha
  Plant response rating, Barnyardgrass: 5
Barnyardgrass [6]
  Barnyardgrass plant response rating (0 to 100 scale, 0 is no effect, 100 is complete control): 100
  Barnyardgrass plant response rating: 100
Wheat [7]
  Wheat plant response rating: 40
  Plant response rating, Wheat: 80
blackgrass; postemergence
  Plant response rating (0 to 100), Blackgrass: 0
blackgrass; postemergence, visual rating
  Blackgrass plant response rating: 10
blackgrass; [8]
  Plant response rating, Blackgrass: 30
blackgrass; Postemergence, 62 g ai/ha
  Plant response rating, Blackgrass: 5

## Clc1cnc(Oc2cccc(Cl)c2-n2cc(I)cn2)nc1 [Compound 181]
Oilseed rape; postemergence
  Plant response rating (0 to 100), Oilseed Rape: 55
Oilseed rape; postemergence, visual rating
  Oilseed Rape plant response rating: 60
Oilseed rape; [8]
  Plant response rating, Oilseed Rape: 100
Oilseed rape; Postemergence, 62 g ai/ha
  Plant response rating, Oilseed Rape: 60
kochia; postemergence
  Plant response rating (0 to 100), Kochia: 70
kochia; postemergence, visual rating
  Kochia plant response rating: 100
kochia; [8]
  Plant response rating, Kochia: 100
kochia; Postemergence, 62 g ai/ha
  Plant response rating, Kochia: 100
Large (Lg) crabgrass; postemergence
  Plant response rating (0 to 100), Crabgrass, Large: 5
Large (Lg) crabgrass; postemergence, visual rating
  Crabgrass, Large plant response rating: 5
Large (Lg) crabgrass; [8]
  Plant response rating, Crabgrass, Large: 10
Large (Lg) crabgrass; Postemergence, 62 g ai/ha
  Plant response rating, Crabgrass, Large: 10
Yellow nutsedge; postemergence
  Plant response rating (0 to 100), Nutsedge, Yellow: 0
Yellow nutsedge; postemergence, visual rating
  Nutsedge, Yellow plant response rating: 0
Yellow nutsedge; Postemergence, 62 g ai/ha
  Plant response rating, Nutsedge, Yellow: 5
Morningglory [1]; postemergence
  Plant response rating (0 to 100), Morningglory: 15
Morningglory [1]; postemergence, visual rating
  Morningglory plant response rating: 20
Morningglory [1]; [8]
  Plant response rating, Morningglory: 98
Morningglory [1]; Postemergence, 62 g ai/ha
  Plant response rating, Morningglory: 75
Morningglory [2]
  Morningglory plant response rating (0 to 100 scale): 0
  Morningglory plant response rating: 30
Wheat [3]
  Wheat plant response rating (0 to 100 scale): 0
  Wheat plant response rating: 10
corn
  Corn plant response rating (0 to 100 scale): 0
  Corn plant response rating: 30
johnsongrass; postemergence
  Plant response rating (0 to 100), Johnsongrass: 0
johnsongrass; postemergence, visual rating
  Johnsongrass plant response rating: 5
johnsongrass; [8]
  Plant response rating, Johnsongrass: 20
johnsongrass; Postemergence, 62 g ai/ha
  Plant response rating, Johnsongrass: 5
sedge, umbrella
  Plant response rating, Sedge, Umbrella: 85
Morningglory [4]
  Morningglory plant response rating: 90
  Plant response rating, Morningglory: 100
Barnyardgrass [5]; 16 g ai/ha, postemergence, 0 is no effect, 100 is complete control
  Plant response rating (0 to 100), Barnyardgrass: 5
Barnyardgrass [5]; postemergence, visual rating
  Barnyardgrass plant response rating: 5
Barnyardgrass [5]; [8]
  Plant response rating, Barnyardgrass: 10
Barnyardgrass [5]; Postemergence, 62 g ai/ha
  Plant response rating, Barnyardgrass: 10
Barnyardgrass [6]
  Barnyardgrass plant response rating (0 to 100 scale, 0 is no effect, 100 is complete control): 50
  Barnyardgrass plant response rating: 100
Wheat [7]
  Wheat plant response rating: 0
  Plant response rating, Wheat: 30
blackgrass; postemergence
  Plant response rating (0 to 100), Blackgrass: 5
blackgrass; postemergence, visual rating
  Blackgrass plant response rating: 5
blackgrass; [8]
  Plant response rating, Blackgrass: 25
blackgrass; Postemergence, 62 g ai/ha
  Plant response rating, Blackgrass: 15
